We go through 47 compounds from patent US10077264B2, “Derivatives and methods of treating hepatitis B infections” (Novira Therapeutics, Inc., priority 2014, dated 2018).

Broadly, the EC50 is the midpoint of the concentration-response curve.

The first assay deals with HBV replication in HepG2.2.15 cells. In words: HBV replication inhibition assay (BDNA assay). It is filed as cell-based. The following applies: HepG2.2.15 cells, 6 days, encapsidated HBV DNA in supernatant; read-out: Activity in BDNA-assay (EC50). An excerpt:
HBV replication inhibition by the compounds of this invention could be determined in cells infected or transfected with HBV, or cells with stably integrated HBV, such as HepG2.2.15 cells (Sells et al. 1987). In this example, HepG2.2.15 cells were maintained in cell culture medium containing 10% fetal bovine serum (FBS), Geneticin, L-glutamine, penicillin and streptomycin. HepG2.2.15 cells could be seeded in 96-well plates at a density of 40,000 cells/well and be treated with serially diluted compounds at a final DMSO concentration of 0.5% either alone or in combination by adding drugs in a checker box format. Cells were incubated with compounds for three days, after which medium was removed and fresh medium containing compounds was added to cells and incubated for another three days. At day 6, supernatant was removed and treated with DNase at 37° C. for 60 minutes, followed by enzyme inactivation at 75° C. for 15 minutes. Encapsidated HBV DNA was released from the virions and covalently linked HBV polymerase by incubating in lysis buffer (Affymetrix QS0010) containing […] proteinase K at 50° C. for 40 minutes. HBV DNA was denatured by addition of 0.2 M NaOH and detected using a branched DNA (BDNA) QuantiGene assay kit according to manufacturer recommendation (Affymetrix). HBV DNA levels could also be quantified using qPCR, based on amplification of encapsidated HBV DNA extraction with QuickExtraction Solution (Epicentre Biotechnologies) and amplification of HBV DNA using HBV specific PCR probes that can hybridize to HBV DNA and a fluorescently labeled probe for quantitation. In addition, cell viability of HepG2.2.15 cells incubated with test compounds alone or in combination was determined by using CellTitre-Glo reagent according to the manufacturer protocol (Promega). The mean background signal from wells containing only culture medium was subtracted from all other samples, and percent inhibition at each compound concentration was calculated by normalizing to signals from HepG2.2.15 cells treated with 0.5% DMSO using equation E1. % inhibition=(DMSOave−Xi)/DMSOave×100% E1: • where DMSOave is the mean signal calculated from the wells that were treated with DMSO control (0% inhibition control) and Xi is the signal measured from the individual wells. EC50 values, effective concentrations that achieved 50% inhibitory effect, were determined by non-linear fitting using Graphpad Prism software (San Diego, Calif.) and equation E2 Y=Ymin+(Ymax−Ymin)/(1+10(Log EC50−X)×HillSlope) E2: • where Y represents percent inhibition values and X represents the logarithm of compound concentrations.
Selected compounds of the invention were assayed in the HBV replication assay (BDNA assay), as described above and a representative group of these active compounds is shown in Table 3.
In the case of `CC1Cc2[nH]nc(-c3ccccc3)c2CN1C(=O)Nc1cccc(Cl)c1` (single isomer, unassigned) [317 (E1), N-(3-chlorophenyl)-6-methyl-3-phenyl-1,4,6,7-tetrahydropyrazolo[4,3-c]pyridine-5-carboxamide], the EC50 was in the range of 10 to 100 nM.
Regarding `CC1Cc2[nH]nc(-c3ccccc3)c2CN1C(=O)Nc1cccc(Cl)c1` (single isomer, unassigned) [317 (E2), N-(3-chlorophenyl)-6-methyl-3-phenyl-1,4,6,7-tetrahydropyrazolo[4,3-c]pyridine-5-carboxamide], the EC50 was 100 to 500 nM.
Same read-out and setting: the figure for `CC1c2c(-c3ccccc3)n[nH]c2CCN1C(=O)Nc1cccc(Cl)c1` (single isomer, unassigned) [318 (E2), N-(3-chlorophenyl)-4-methyl-3-phenyl-1,4,6,7-tetrahydropyrazolo[4,3-c]pyridine-5-carboxamide] is 100 to 500 nM; for `CC1Cc2[nH]nc(-c3cscn3)c2CN1C(=O)Nc1ccc(F)c(Cl)c1` (centres unmarked) [917 E2] it is 10 to 100 nM.
On the same count and under the same terms, the figure for `CC1Cc2[nH]nc(-c3cscn3)c2CN1C(=O)Nc1cccc(Br)c1` (centres unmarked) [918 E2] is 10 to 100 nM; for `CC1Cc2[nH]nc(-c3cscn3)c2CN1C(=O)Nc1ccc(F)c(Br)c1` (centres unmarked) [919 E2] it is 10 to 100 nM; for `CC1Cc2[nH]nc(-c3cscn3)c2CN1C(=O)Nc1cccc(Br)c1F` (centres unmarked) [920 E2] it is 10 to 100 nM.
Same read-out and setting: under `CC1Cc2[nH]nc(-c3cscn3)c2CN1C(=O)Nc1ccnc(Br)c1F` (centres unmarked) [921 E2] stands 10 to 100 nM; under `CC1Cc2[nH]nc(-c3cscn3)c2CN1C(=O)Nc1ccc(F)c(C#N)c1` (centres unmarked) [922 E2], 10 to 100 nM.
In the case of `Cc1cccc(NC(=O)N2Cc3c(-c4cscn4)n[nH]c3CC2C)c1` (centres unmarked) [923 E2], the EC50 fell in the range of 10 to 100 nM.
Same read-out and setting: under `Cc1cc(NC(=O)N2Cc3c(-c4cscn4)n[nH]c3CC2C)ccc1F` (centres unmarked) [924 E2] stands 10 to 100 nM.

Still in this assay, the particulars now being: Hepatitis B virus, 144 h; HepG2.2.15 cells, 10 μM, 6 days, encapsidated HBV DNA in supernatant; read-out: Activity in BDNA-assay (activity at 10 μM).
Consider `O=C(C1C[C@H]1c1ccccc1)N1CCc2[nH]nc(-c3ccccc3)c2C1` (stereo in doubt) [Compound 030, (2-phenylcyclopropyl)-(3-phenyl-2,4,6,7-tetrahydropyrazolo[4,3-c]pyridin-5-yl)methanone], for which the inhibition at 10 µM is > 50%.
Still for that read-out and setting: under `O=C(COc1cncnc1)N1CCc2[nH]nc(-c3ccccc3)c2C1` [Compound 001] stands > 50%; under `CC(OC(=O)N1CCc2[nH]nc(-c3ccccc3)c2C1)c1ccccc1` (centres unmarked) [Compound 016, 1-phenylethyl 3-phenyl-1,4,6,7-tetrahydropyrazolo[4,3-c]pyridine-5-carboxylate], > 50%.
For `O=C(NCc1ccccc1)N1CCc2[nH]nc(-c3ccccc3)c2C1` [Compound 017, N-benzyl-3-phenyl-1,4,6,7-tetrahydropyrazolo[4,3-c]pyridine-5-carboxamide], the inhibition at 10 µM is > 50%.
With `O=C(OCc1ccccc1)N1CCc2[nH]nc(-c3ccccc3)c2C1` [Compound 024, benzyl 3-phenyl-1,4,6,7-tetrahydropyrazolo[4,3-c]pyridine-5-carboxylate], the inhibition at 10 µM is > 50%.
For `O=C(CCc1ccccc1)N1CCc2[nH]nc(-c3ccccc3)c2C1` [Compound 027, 3-phenyl-1-(3-phenyl-1,4,6,7-tetrahydropyrazolo[4,3-c]pyridin-5-yl)propan-1-one], the inhibition at 10 µM is > 50%.
Still for that read-out and setting: under `O=C(/C=C/c1ccccc1)N1CCc2[nH]nc(-c3ccccc3)c2C1` [Compound 057, (E)-3-phenyl-1-(3-phenyl-1,4,6,7-tetrahydropyrazolo[4,3-c]pyridin-5-yl)prop-2-en-1-one] stands > 50%; under `O=C(Nc1ccc(Cl)cc1)N1CCc2[nH]nc(-c3ccccc3)c2C1` [Compound 113], > 50%; under `O=C(COc1ccccc1F)N1CCc2[nH]nc(-c3ccccc3)c2C1` [Compound 142], > 50%.
The same measure, in the same setting: the figure for `O=C(COc1cccc(F)c1)N1CCc2[nH]nc(-c3ccccc3)c2C1` [Compound 143] is > 50%.
The same measure, in the same setting: the figure for `O=C(COc1ccc(F)cc1)N1CCc2[nH]nc(-c3ccccc3)c2C1` [Compound 144] is > 50%; for `Cc1cccc(OCC(=O)N2CCc3[nH]nc(-c4ccccc4)c3C2)c1` [Compound 145] it is > 50%; for `Cc1ccc(OCC(=O)N2CCc3[nH]nc(-c4ccccc4)c3C2)cc1` [Compound 147] it is > 50%.
As to `O=C(COc1ccccc1Cl)N1CCc2[nH]nc(-c3ccccc3)c2C1` [Compound 148], the inhibition at 10 µM is > 50%.
On the same count and under the same terms, the figure for `O=C(COc1cccc(Cl)c1)N1CCc2[nH]nc(-c3ccccc3)c2C1` [Compound 149] is > 50%; for `O=C(COc1ccc(Cl)cc1)N1CCc2[nH]nc(-c3ccccc3)c2C1` [Compound 150] it is > 50%.
On the same count and under the same terms, under `N#Cc1ccccc1OCC(=O)N1CCc2[nH]nc(-c3ccccc3)c2C1` [Compound 154] stands > 50%.
In the case of `N#Cc1ccc(OCC(=O)N2CCc3[nH]nc(-c4ccccc4)c3C2)cc1` [Compound 156], the inhibition at 10 µM is > 50%.
Turning to `O=C(COc1ccccc1C(F)(F)F)N1CCc2[nH]nc(-c3ccccc3)c2C1` [Compound 163], the inhibition at 10 µM is > 50%.
Still for that read-out and setting: under `O=C(COc1cccc(C(F)(F)F)c1)N1CCc2[nH]nc(-c3ccccc3)c2C1` [Compound 164] stands > 50%.
For `O=C(COc1ccc(C(F)(F)F)cc1)N1CCc2[nH]nc(-c3ccccc3)c2C1` [Compound 165], the inhibition at 10 µM is > 50%.
The same measure, in the same setting: the figure for `O=C(C1COc2ccccc2O1)N1CCc2[nH]nc(-c3ccccc3)c2C1` (centres unmarked) [Compound 171] is > 50%.

The assay is the same for the next values; noted with them: Hepatitis B virus, HepG2.2.15, 144 h, HepG2.2.15 cells, 6 days, encapsidated HBV DNA in supernatant; read-out: Activity in BDNA-assay (EC50).
For the compound `CC1c2c(-c3ccccc3)n[nH]c2CCN1C(=O)Nc1cccc(Cl)c1` (single isomer, unassigned) [318 (E1), N-(3-chlorophenyl)-4-methyl-3-phenyl-1,4,6,7-tetrahydropyrazolo[4,3-c]pyridine-5-carboxamide], the EC50 fell in the range of 100 to 500 nM.
On to `CC1Cc2[nH]nc(-c3cscn3)c2CN1C(=O)Nc1ccc(F)c(Cl)c1` (centres unmarked) [917 E1, N-(3-chloro-4-fluoro-phenyl)-6-methyl-3-thiazol-4-yl-1,4,6,7-tetrahydropyrazolo[4,3-c]pyridine-5-carboxamide], for which the EC50 was in the range of 10 to 100 nM.
For the compound `CC1Cc2[nH]nc(-c3cscn3)c2CN1C(=O)Nc1cccc(Br)c1` (centres unmarked) [918 E1], the EC50 was in the range of 10 to 100 nM.
Same read-out and setting: the figure for `CC1Cc2[nH]nc(-c3cscn3)c2CN1C(=O)Nc1ccc(F)c(Br)c1` (centres unmarked) [919 E1] is 10 to 100 nM; for `CC1Cc2[nH]nc(-c3cscn3)c2CN1C(=O)Nc1cccc(Br)c1F` (centres unmarked) [920 E1] it is 10 to 100 nM.
With `CC1Cc2[nH]nc(-c3cscn3)c2CN1C(=O)Nc1ccnc(Br)c1F` (centres unmarked) [921 E1], the EC50 is 10 to 100 nM.
Turning to `CC1Cc2[nH]nc(-c3cscn3)c2CN1C(=O)Nc1ccc(F)c(C#N)c1` (centres unmarked) [922 E1], the EC50 lay in the range of 10 to 100 nM.
Still for that read-out and setting: under `Cc1cccc(NC(=O)N2Cc3c(-c4cscn4)n[nH]c3CC2C)c1` (centres unmarked) [923 E1] stands 10 to 100 nM.
Consider `Cc1cc(NC(=O)N2Cc3c(-c4cscn4)n[nH]c3CC2C)ccc1F` (centres unmarked) [924 E1], for which the EC50 lay in the range of 10 to 100 nM.
Same read-out and setting: under `CC(Oc1ccccc1)C(=O)N1CCc2[nH]nc(-c3ccccc3)c2C1` (centres unmarked) [Compound 014, 2-phenoxy-1-(3-phenyl-1,4,6,7-tetrahydropyrazolo[4,3-c]pyridin-5-yl)propan-1-one] stands 1000 to 1500 nM; under `O=C(Nc1cccc(Cl)c1)N1CCc2[nH]nc(-c3ccccc3)c2C1` [Compound 112], 10 to 100 nM; under `O=C(Nc1ccc(F)c(Cl)c1)N1CCc2[nH]nc(-c3ccccc3)c2C1` [Compound 114], 10 to 100 nM.

The assay is the same for the next values; noted with them: Hepatitis B virus, HepG2.2.15, 144 h, read-out: Activity in BDNA-assay (EC50).
Take `O=C(Nc1ccccc1)N1CCc2[nH]nc(-c3ccccc3)c2C1` [Compound 022, N,3-diphenyl-1,4,6,7-tetrahydropyrazolo[4,3-c]pyridine-5-carboxamide]: the EC50 was 100 to 500 nM.

Still in this assay, the particulars now being: Hepatitis B virus, HepG2.2.15, 144 h, read-out: Activity in BDNA-assay (activity at 10 μM).
For the compound `O=C(Oc1ccccc1)N1CCc2[nH]nc(-c3ccccc3)c2C1` [Compound 021, phenyl3-phenyl-1,4,6,7-tetrahydropyrazolo[4,3-c]pyridine-5-carboxylate], the inhibition at 10 µM was > 50%.
